Assays:
[1] = test system: cortex culture containing neurons and glia; experiment: Brain cell protection in apoptosis induced by oxygen-glucose deprivation (OGD)/reoxygenation, LDH release; type: cell-based, rat; settings: for protective effect on brain cells (apoptosis, % LDH release): OGD then 24 hours normoxic, 6 concentrations, FIG. 1
Protocol: A […] cortex culture medium containing neurons and glia was obtained from fetal rats during the gestation period of 17 to 18 days. That is, an embryonic tissue was extracted from a pregnant Sprague-Dawley and transferred to a Hanks Balanced Salt solution (Gibco) cooled with ice. The cortical brain tissue was sterile and thinly dissected and stored in cold HBSS before digestion with 0.0125% trypsin. The isolated cells were placed in a 96 well plate coated with poly-L-lysine (1 mg/ml, Sigma-Aldrich) in a Dulbecco's modified eagle medium (Gibco) containing 10% iron-supplemented fetal calf serum (Hyclone) and 1% antibiotic/antimycotic (Gibco) at 37° C. at a seeding density of 50,000 cells/well. Then, after attaching the culture medium overnight in a 37° C. incubator containing 5% CO2 and atmospheric oxygen, at the next day, the medium was replaced with a warm Neurobasal A medium (Gibco) containing 0.5 mmol/L of L-glutamine (Gibco) and supplemented with 1% B27, N2 and antibiotics/antimycotic (Gibco). In the culture for 14 to 16 days, half of the medium was changed every 4 days. After 14 days of cell culture, the culture medium was replaced with a vehicle (0.1% DMSO or EtOH) or an oxygen-free-glucose Neurobasal A containing an experimental substance (RA1, naringenin or lipoic acid) at 6 concentrations. After oxygen-glucose deprivation (OGD), the same volume of Neurobasal A with the same novel substance concentration was added and transferred to a normoxic condition (5% CO2 and atmospheric oxygen) state for 24 hours. Cellular activity was evaluated by measuring LDH release of damaged cells. The effects of lipoic acid, naringenin, and the novel substance RA1 on apoptosis (% LDH release) following ischemia/reoxygenation-reperfusion (I/R) were performed in the in vitro cell culture.

cerebral infarction site = experiment: Transient middle cerebral artery occlusion (t-MCAO), administration immediately before artery occlusion; type: in vivo, Sprague-Dawley rats; settings: for size of the cerebral infarction site compared to the vehicle: 30 min occlusion, 5 h 30 min reperfusion, FIG. 3(A); for size of the cerebral infarction site, dependence on concentration: FIG. 3(B) and (C)
Protocol: As a research model for cerebral infarction, transient middle cerebral artery occlusion (t-MCAO) in animals (rats) was used to examine the infarct size of the cerebral infarction site and the degree of its protective action. First, in an animal model in which the middle cerebral artery of Sprague-Dawley rats (300 to 350 g; Charles River, Montreal, PQ, CAN) was closed for 30 minutes to create a cerebral infarction and then reperfused for 5 hours and 30 minutes (t-MCAO), naringenin and RA1 (VANL-100) were administered immediately before artery occlusion and compared with a case of administration of a vehicle.

[2] = Antioxidant capacity, radical scavenging ability by DPPH (Blois method); settings: absorbance at 517 nm
Protocol: The antioxidant capacity of the novel compounds was measured by using a Blois method of measuring radical scavenging ability by DPPH which was widely known. A solution of DPPH by concentration was prepared in ethanol, and the initial absorbance was measured at 517 nm, and the absorbance over time was measured by adding a solution of the novel compound and the DPPH solution. The antioxidant capacity was expressed in % and an IC50 value was obtained using a calculation program.

mushroom tyrosinase = experiment: Inhibitory effect on tyrosinase; type: biochemical; settings: L-tyrosine substrate, pH 6.5, 37° C., 30 minutes; read-out: Inhibition of tyrosinase
Protocol: The inhibitory effect on tyrosinase related to skin whitening and melanin formation was measured using the following experimental method. 10 μL of each sample solution at a different concentration and 20 μL of mushroom tyrosinase in a phosphate buffer (pH 6.5) were added to a 96-well microplate and added with 170 μL of a mixed solution in which a 1 mM L-tyrosine solution, a 50 mM potassium phosphate buffer (pH 6.5) and distilled water were contained in a ratio of 10:10:9. Samples dissolved in DMSO were diluted 30 times with distilled water and used. After incubation at 37° C. for 30 minutes, the absorbance of the reaction solution was measured at 490 nm using a GENios microplate reader (Tecan Austria GmbH, Austria). The inhibition degree of tyrosinase by the addition of the sample was expressed as a 50% inhibition rate (IC50).

[3] = test system: cortex culture containing neurons and glia; experiment: Total antioxidant capacity assay after OGD and I/R (Antioxidant Assay Kit); type: cell-based, rat; settings: FIG. 2
Protocol: Several groups of plates were subjected to the OGD (oxygen-glucose deprivation) and I/R (ischemia-reperfusion), and the total antioxidant capacity was measured using a general commercial instrument (Antioxidant Assay Kit, Sigma-Aldrich). The average value of the three experiments was obtained and the antioxidant capacity was expressed in […].

SMILES	Antioxidant capacity (%) [2] [%]	IC50 (mushroom tyrosinase) [µM]	other results
O=C1C[C@@H](c2ccc(O)cc2)Oc2cc(O)cc(O)c21 [Naringenin]	58.5	82	protective effect on brain cells (apoptosis, % LDH release) [1]: slight effect at one concentration; size of the cerebral infarction site compared to the vehicle (cerebral infarction site): significantly reduced; size of the cerebral infarction site, dependence on concentration (cerebral infarction site): reduced the size of the cerebral infarction site depending on a concentration
O=C(CCCCC1CCSS1)OCCOCCOc1cc(O)c2c(c1)OC(c1ccc(O)cc1)CC2=O (stereo not shown) [RA5, 2-(2-((5-hydroxy-2-(4-hydroxyphenyl)-4-oxochroman-7-yl)oxy)ethoxy) ethyl 5-(1,2-dithiolan-3-yl)pentanoate]	28.5	225	–
O=C(CCCCC1CCSS1)OCCOCCOCCOCCOCCOCCOc1cc(O)c2c(c1)OC(c1ccc(O)cc1)CC2=O (stereo not shown) [RA9, 17-((5-hydroxy-2-(4-hydroxyphenyl)-4-oxochroman-7-yl)oxy)-3,6,9,12,15-pentaoxaheptadecyl 5-(1,2-dithiolan-3-yl)pentanoate]	24	> 350	–
O=C(CCCCC1CCSS1)OCCOCCOCCOCCOCCOc1cc(O)c2c(c1)OC(c1ccc(O)cc1)CC2=O (stereo not shown) [RA8, 14-((5-hydroxy-2-(4-hydroxyphenyl)-4-oxochroman-7-yl)oxy)-3,6,9,12-tetraoxatetradecyl 5-(1,2-dithiolan-3-yl)pentanoate]	11.5	> 350	–
O=C(O)CCCC[C@@H]1CCSS1 (racemic) [Lipoic acid]	66.8	44	protective effect on brain cells (apoptosis, % LDH release) [1]: hardly showed a protective effect; total antioxidant capacity ([3]; 0.25 and 25 ummol/L): no antioxidant effect; total antioxidant capacity ([3]; high concentrations of 125 and 1250 ummol/L): great antioxidant capacity
O=C(CCCCC1CCSS1)Oc1ccc(C2CC(=O)c3c(O)cc(OC(=O)CCCCC4CCSS4)cc3O2)cc1 (stereo not shown) [RA3, 4-(7-((5-(1,2-dithiolan-3-yl)pentanoyl)oxy)-5-hydroxy-4-oxochroman-2-yl)phenyl 5-(1,2-dithiolan-3-yl)pentanoate]	12.4	133	–
O=C(CCCCC1CCSS1)Oc1cc(O)c2c(c1)OC(c1ccc(O)cc1)CC2=O (stereo not shown) [RA1, 5-hydroxy-2-(4-hydroxyphenyl)-4-oxochroman-7-yl 5-(1,2-dithiolan-3-yl)pentanoate]	–	32	strength of protective effect on brain cells at a very low concentration ([1]; FIG. 1D, comparison with lipoic acid and naringenin): about 100 times; protective effect on brain cells (apoptosis, % LDH release) [1]: very strong protective effect; total antioxidant capacity ([3]; 2.5 to 1250 ummol/L): strong protective effect; size of the cerebral infarction site compared to the vehicle (cerebral infarction site): significantly reduced; size of the cerebral infarction site, dependence on concentration (cerebral infarction site): reduced the size of the cerebral infarction site depending on a concentration; effective concentration, times lower than naringenin (10 mg/kg) (cerebral infarction site; RA1 1×10^−3 mg/kg against naringenin 10 mg/kg): 10,000 times; size of the cerebral infarction site (cerebral infarction site; RA1 at 1×10^−3 mg/kg): strongly reduced; protective effect on brain cells, times stronger than naringenin or lipoic acid (cerebral infarction site; animal brain infarction model, very low concentration): ~10,000 times
O=C(CCCCC1CCSS1)OCCOCCOCCOCCOc1cc(O)c2c(c1)OC(c1ccc(O)cc1)CC2=O (stereo not shown) [RA7, 2-(2-(2-(2-((5-hydroxy-2-(4-hydroxyphenyl)-4-oxochroman-7-yl)oxy)ethoxy)ethoxy)ethoxy)ethyl 5-(1,2-dithiolan-3-yl)pentanoate]	–	> 350	–
OC[C@H]1O[C@@H](Oc2ccc(O)cc2)[C@H](O)[C@@H](O)[C@@H]1O [Arbutin, reference compound]	36	266	–
O=C(CCCCC1CCSS1)OCCOCCOCCOc1cc(O)c2c(c1)OC(c1ccc(O)cc1)CC2=O (stereo not shown) [RA6, 2-(2-(2-((5-hydroxy-2-(4-hydroxyphenyl)-4-oxochroman-7-yl)oxy)ethoxy)ethoxy)ethyl 5-(1,2-dithiolan-3-yl)pentanoate]	14.6	350	–
O=C(CCCCC1CCSS1)Oc1ccc(C2CC(=O)c3c(O)cc(O)cc3O2)cc1 (stereo not shown) [RA2, 4-(5,7-dihydroxy-4-oxochroman-2-yl)phenyl 5-(1,2-dithiolan-3-yl)pentanoate]	77	58	–
O=C(CCCCC1CCSS1)OCCOc1cc(O)c2c(c1)OC(c1ccc(O)cc1)CC2=O (stereo not shown) [RA4, 2-((5-hydroxy-2-(4-hydroxyphenyl)-4-oxochroman-7-yl)oxy)ethyl 5-(1,2-dithiolan-3-yl)pentanoate]	22	260	–
O=c1cc(CO)occ1O [Kojic acid, reference compound]	28	–	–

Reference: patent US20210260199A1, “NOVEL NARINGENIN/LIPOIC ACID CONJUGATE COMPOUND AND USE THEREOF” (priority 2018, published 2021)
